Source: patent US20240277717A1, “APPLICATION OF GANCICLOVIR IN PREPAPRATION OF MEDICINE FOR TREATING ALLERGIC RHINITIS” (Union Hospital, Tongji Medical College, Huazhong University …, priority 2023, published 2024)
Entries after “also recorded” stand apart in the source; their conditions may differ.

Columns and labels:
[1] = tested on: peripheral blood mononuclear cells (PBMCs); assay: GCV medicine test of the PBMCs in vitro (flow cytometry); assay type: cell-based, human; conditions: 400 μM GCV, 48 hours
Protocol: The peripheral blood of patients with the intractable AR is collected. The peripheral blood mononuclear cells (PBMCs) are isolated within 8 hours using a lymphocyte separation medium (MP biomedicals) and suspended in Roswell Park Memorial Institute (RPMI) 1640 medium (Gibco™) containing 10% heat-inactivated fetal bovine serum (Gibco™, Grand Island) and 1% penicillin and streptomycin (Gibco™) at a density of 1×10^6/mL. Three wells are set for each sample, including: a non treated well (also referred to as NT well), a well adding 1 microliter (μL) dimethyl sulfoxide (DMSO; Solarbio®) (also referred to as DMSO well), and a well adding 400 micromoles per liter (μM) of the GCV (diluted with DMSO, Selleck) (also referred to as GCV well). The PBMCs are cultured in a 24-well cell culture plate (Corning®, NY) under different stimulations in a 5% CO2, 37° C. cell incubator. According to the instructions of Leukocyte Activation Cocktail with BD GolgiPlug™ (BD Bioscience), the PBMCs are added to a cell culture medium 4-6 hours before dyeing to improve the dyeing effect of intracellular cytokines. After 48 hours of cell culture, the cell solution is collected and dyed with anti-human fixable viability stain 510 (FVS-BV510), brilliant violet 605 anti-human cluster of differentiation 4 antibody (CD4-BV605), and […] isothiocyanate isomer I (CD8-FITC), and then dyed with interleukin-4-brilliant violet™ 421 dyes (IL-4-BV421), interleukin-17A-phycoerythrin (IL-17A-PE), human interferon-gamma-PE-cyanine7 dye (IFNγ-PE-Cy7), and FOXP3-BB700 (all from BD Bioscience) after breaking the nucleus with a fixed nuclear breaker (eBioscience™). BD LSRFortessa™ X-20 (BD Biosciences, USA) and FlowJo™ software (FlowJo, Ashland, OR USA) are used for analysis.

[2] = tested on: nasal scraping cells; assay: Transcriptome sequencing (RNA-seq) of nasal scraping cells; assay type: in vivo, human
Protocol: The scraped mucosal epithelial cells are placed in a TRIzol™ reagent (Invitrogen™) and stored in liquid nitrogen for processing. Library preparation and high-throughput sequencing, data analysis, ribonucleic acid (RNA) sequence and deoxyribonucleic acid (DNA) virus sequence enrichment analysis are performed by Seqhealth Technology Co., Ltd. (China; wuhan). Sample quality analysis is performed by Nanodrop™ OneC spectrophotometer to detect expression at A260 and A280. Qualified samples are finally quantified by QubitR®3.0 fluorometer and Qubit™ RNA broad-range (BR) Assay kits. The original data is first filtered by Trimomatic (Version 0.36). Counting by FeatureCounts, and then calculate reads per kilobase of exon model per million mapped reads (RPKM). Differentially expressed genes between groups are identified using an edgeR package (Version 3.12.1). In analysis, P value<0.05 and fold change (FC) higher than 2 are considered to be significant differences in gene expression between groups.

[3] = PBMCs of GCV effective and ineffective groups
[4] = GCV effective group n=6, before vs after, P<0.05 and FC>2
[5] = GCV effective group n=6, nasal scraping cells

In the case of Nc1nc(O)c2ncn(COC(CO)CO)c2n1 [GCV, Ganciclovir], the “percentage of CD4+IFNγ+ cells, change” value [1, 3] is reported as “no significant change”, the “percentage of CD4+IL4+ cells, change” value [1, 3] is reported as “no significant change” and the “percentage of CD4+IL17A+ cells, change” value [1, 3] is reported as “no significant change”. For the same molecule, the “percentage of CD8+IFNγ+ cells/CD4+, change” value [1, 3] was “no significant change”, the “percentage of CD4+FOXP3+ cells/CD4+ cells, GCV well vs DMSO well” value ([1]; PBMCs of GCV effective group n=26, p<0.001) was “significantly increased; also recorded: significantly higher” and the “percentage of CD4+FOXP3+ cells/CD4+ cells, GCV well vs DMSO well” value ([1]; PBMCs of GCV ineffective group n=14, p<0.05) was “significantly lower”. The “genes down-regulated after GCV treatment” value [2, 4] was 160 genes, the “genes up-regulated after GCV treatment” value [2, 4] was 25 genes and the “CXCL9 expression after GCV treatment” value [2, 5] was “up-regulated”. The “CXCL10 expression after GCV treatment” value [2, 5] was “up-regulated” and the “MUC5B expression after GCV treatment” value [2, 5] was “down-regulated”.
